Data published in patent publication US20240294478A1, “ANTI-CANCER COMPOUNDS AND METHODS OF USE” (YALE UNIVERSITY, priority 2021, published 2024).

What was measured:
[1] = test system: PD20 cells, deficient in FANCD2 (FANCD2−/−) or complemented with FANCD2; test: Short-term viability assay, PD20 cells; assay type: cell-based, human; details: PD20 FANCD2−/− vs +FANCD2
Protocol: (§1) FIGS. 8A-8K. (FIG. 8A) Change in percent cells with 1 micronuclei from baseline (DMSO control) after treatment as in FIGS. 5A and 5C. […] (FIG. 8B) Short-term viability assay curves for KL-50 in PD20 cells, deficient in FANCD2 (FANCD2−/−) or complemented with FANCD2 (+FANCD2). (FIG. 8C) Short-term viability assay curves for KL-50 in PEO4 (BRCA2+) and PEO1 (BRCA2−/−) cells pre-treated with 0.01% DMSO control or 10 μM O^6BG (+O^6BG) for 1 h prior to KL-50 addition. (FIG. 8D) Short-term viability assay curves for KL-50 in DLD1 BRCA2+/− and BRCA2−/−cells pre-treated with 0.01% DMSO control or 10 μM O^6BG (+O^6BG) for 1 h prior to KL-50 addition. For FIGS. 8B-8D, points, mean; error bars, SD; n=3 technical replicates. […] Change in percent cells with 1 micronuclei from baseline (DMSO control) after treatment with olaparib (10 μM) for 48 h in LN229 MGMT+/−, MMR+/−cells. […] Western blot analysis of FANCD2 ubiquitination in LN229 MGMT+/−, MMR+/−cells and PD20 FANCD2-deficient cells, complemented with empty vector (FANCD2+EV), wildtype FANCD2 (PD20+FD2) or ubiquitination-mutant FANCD2 (PD20+KR). The % FANCD2 ubiquitination (% FANCD2 Ub) is quantified as the background-corrected integrated band intensity of the upper band divided by the sum of the background-corrected integrated band intensities of the upper and lower bands. The fold change in % FANCD2 ubiquitination is presented for each cell line relative to DMSO-treated cells. Vinculin serves as loading control. For 8J-8K, points, mean; error bars, SD; n=3 technical replicates.
(§2) Short-term Cell Viability Assay. Cells were seeded in 96-well plates at 1000 or 2000 cells/well and allowed to adhere at 23° C. for 60 min and then incubated overnight at 37° C. […] Cells were imaged on a Cytation 3 imaging reader (BioTek) and quantified using CellProfiler software. For in vitro short-term growth delay experiments, IC50 values were determined from the nonlinear regression equation, [inhibitor] vs normalized response with variable slope.

[2] = test system: linearized pUC19 plasmid DNA; test: Melting temperature assay; assay type: biochemical; details: 100 or 500 μM for 3 h
Protocol: Columns, mean; error bars, SD; n=2 independent analyses. For (A) and (C), points, mean; error bars, SD; n=3 technical replicates.
Melting Temperature Assay. Linearized pUC19 DNA (750 ng), prepared as described above, was incubated with the indicated concentration of either MMS or KL-50 adjusted in a final volume of 18 μL in 100 mM Tris buffer (pH 7.4) for 3 h. Drug stock concentrations were made in DMSO such that each reaction contained a fixed 5% DMSO concentration. Afterwards, 1 μL each of 20×SYBR Green dye (Invitrogen) and 20×ROX reference dye (Invitrogen) was added and melting temperature analysis was run on a StepOnePlus RT PCR System (Applied Biosciences) to generate melting temperature curves.

[3] = test system: DLD1 BRCA2+/− and BRCA2−/− cells; test: Short-term viability assay, DLD1 BRCA2 isogenic model +/- O6BG; assay type: cell-based, human; details: DLD1 isogenic model
Protocol: as §1, §2

[4] = test system: PEO4 (BRCA2+) and PEO1 (BRCA2−/−) cells; test: Short-term viability assay, PEO1/PEO4 model +/- O6BG; assay type: cell-based, human; details: PE01/4 model
Protocol: FIGS. 8A-8K. (FIG. 8A) Change in percent cells with 1 micronuclei from baseline (DMSO control) after treatment as in FIGS. 5A and 5C. […] (FIG. 8B) Short-term viability assay curves for KL-50 in PD20 cells, deficient in FANCD2 (FANCD2−/−) or complemented with FANCD2 (+FANCD2). (FIG. 8C) Short-term viability assay curves for KL-50 in PEO4 (BRCA2+) and PEO1 (BRCA2−/−) cells pre-treated with 0.01% DMSO control or 10 μM O^6BG (+O^6BG) for 1 h prior to KL-50 addition. (FIG. 8D) Short-term viability assay curves for KL-50 in DLD1 BRCA2+/− and BRCA2−/−cells pre-treated with 0.01% DMSO control or 10 μM O^6BG (+O^6BG) for 1 h prior to KL-50 addition. For FIGS. 8B-8D, points, mean; error bars, SD; n=3 technical replicates. […] The % FANCD2 ubiquitination (% FANCD2 Ub) is quantified as the background-corrected integrated band intensity of the upper band divided by the sum of the background-corrected integrated band intensities of the upper and lower bands. […]
Short-term Cell Viability Assay. […] Cells were imaged on a Cytation 3 imaging reader (BioTek) and quantified using CellProfiler software. For in vitro short-term growth delay experiments, IC50 values were determined from the nonlinear regression equation, [inhibitor] vs normalized response with variable slope.

| Compound | sensitivity of FANCD2-deficient cells [1] | change in DNA melting temperature [2] | therapeutic index (TI), ratio of IC50 values in MGMT+/BRCA2+ cells compared to MGMT−/BRCA2− cells [3] [fold] | therapeutic index (TI) [4] [fold] |
| --- | --- | --- | --- | --- |
| CO[C@@]12[C@H](COC(N)=O)C3=C(C(=O)C(C)=C(N)C3=O)N1C[C@@H]1N[C@@H]12 [MMC, Mitomycin C] | hypersensitivity to crosslinking agents in FANCD2−/−cells |  |  |  |
| COS(C)(=O)=O [MMS, Methylmethane sulfonate, reference compound] |  | comparable changes in measured DNA melting temperature |  |  |
| N.N.[Cl][Pt][Cl] [cisplatin, reference compound] | hypersensitivity to crosslinking agents in FANCD2−/−cells |  | 42 | 13 |
